Experimental data published in patent US11439148B2, “Pyrimidine derivatives” (SYNGENTA PARTICIPATIONS AG, priority 2017, dated 2022).

These compounds were tested on Setaria viridis (SETVI) (assay: Adjuvant efficacy with fomesafen, glasshouse spray test). Conditions: fomesafen sodium salt SL, mean over 100 and 200 g/ha and 3 replicates; adjuvant 0.2% v/v (none in No Adjuvant rows); % leaf area killed, 21 days after application; Tests 1-4 separate runs.
Format: in vivo
Description: (§1) The efficacy of adjuvants 1-12 as adjuvants for the herbicide fomesafen (as the sodium salt) were tested in a glasshouse against four weed species, sown into standard soil in pots and cultivated under controlled conditions in a glasshouse (at 24/18° C. day/night; 16 hours light, 65% humidity). Fomesafen sodium salt was added to the spray tank as a standard SL (soluble concentrate) formulation.
(§2) The spray tests were also carried out using fomesafen in conjunction with adjuvants 1-12. Unless otherwise stated, the adjuvants were added to the spray solution at a rate of 0.2% v/v. All spray solutions also contained 12.5% v/v of iso-Propanol to normalise the retention of the sprays on the hydrophobic plant surfaces. The weed species and their BBCH growth stage at spraying were Abutilon theophrasti (ABUTH; growth stage 12-13), Chenopodium album (CHEAL; growth stage 15), Ipomea hederacea (IPOHE; growth stage 12), and Setaria viridis (SETVI; growth stage 14). Each spray test was replicated three times. The test plants were then grown in a glasshouse under controlled conditions (at 24/18° C. day/night; 16 hours light; 65% humidity) and watered twice a day.
(§3) The efficacy of the herbicide was assessed visually and expressed as a percentage of the leaf area killed. Samples were assessed at a time period of 21 days following application. The results shown in Table 2 below are mean averages over the two rates of fomesafen, the three replicates […].
With CCCCCCCCCOc1cc(OCCOCCOCCOCCOCCOCCOCCOCCOCCOCCOC)ncn1 [Adjuvant 5] the “Mean % Herbicidal Activity SETVI” value was 49%. CCCCCCCCCCCCOc1cc(OCCOCCOCCOCCOCCOCCOCCOC)ncn1 [Adjuvant 6] was tested, and the “Mean % Herbicidal Activity SETVI” value was 25%.

Each compound was assayed on Ipomea hederacea (IPOHE) in the same assay as above. Conditions: fomesafen sodium salt SL, mean over 100 and 200 g/ha and 3 replicates; adjuvant 0.2% v/v (none in No Adjuvant rows); % leaf area killed, 21 days after application; Tests 1-4 separate runs.
Format: in vivo
Description: as §1, §2, §3
For CCCCCCCCCOc1cc(OCCOCCOCCOCCOCCOCCOCCOCCOCCOCCOC)ncn1 [Adjuvant 5], the “Mean % Herbicidal Activity IPOHE” value was 64%. With CCCCCCCCCCCCOc1cc(OCCOCCOCCOCCOCCOCCOCCOC)ncn1 [Adjuvant 6] the “Mean % Herbicidal Activity IPOHE” value was 64%.

What follows are compounds tested on Abutilon theophrasti (ABUTH) in the same assay as above. Conditions: fomesafen sodium salt SL, mean over 100 and 200 g/ha and 3 replicates; adjuvant 0.2% v/v (none in No Adjuvant rows); % leaf area killed, 21 days after application; Tests 1-4 separate runs.
Format: in vivo
Description: as §1, §2, §3
For CCCCCCCCCOc1cc(OCCOCCOCCOCCOCCOCCOCCOCCOCCOCCOC)ncn1 [Adjuvant 5], the “Mean % Herbicidal Activity ABUTH” value was 60%. For CCCCCCCCCCCCOc1cc(OCCOCCOCCOCCOCCOCCOCCOC)ncn1 [Adjuvant 6], the “Mean % Herbicidal Activity ABUTH” value was 31%.

Each compound was assayed on Chenopodium album (CHEAL) in the same assay as above. Conditions: fomesafen sodium salt SL, mean over 100 and 200 g/ha and 3 replicates; adjuvant 0.2% v/v (none in No Adjuvant rows); % leaf area killed, 21 days after application; Tests 1-4 separate runs.
Format: in vivo
Description: as §1, §2, §3
In the case of CCCCCCCCCOc1cc(OCCOCCOCCOCCOCCOCCOCCOCCOCCOCCOC)ncn1 [Adjuvant 5], the “Mean % Herbicidal Activity CHEAL” value is reported as 55%. With CCCCCCCCCCCCOc1cc(OCCOCCOCCOCCOCCOCCOCCOC)ncn1 [Adjuvant 6] the “Mean % Herbicidal Activity CHEAL” value was 80%.

The compounds below were run on Alopecurus myosuroides (ALOMY) (assay: Adjuvant efficacy with pinoxaden, glasshouse spray test). Conditions: pinoxaden EC, mean over 7.5 and 15 g/ha and 3 replicates; adjuvant 0.2% v/v (none in No Adjuvant rows); % leaf area killed, 21 days after application; Tests 1-4 separate runs.
Format: in vivo
Description: as §1, with “pinoxaden” for “fomesafen (as the sodium salt)”, “20/16°” for “24/18°”, “light;” for “light,”, “Pinoxaden” for “Fomesafen sodium salt”, “EC (emulsifiable” for “SL (soluble”
(§4) The spray tests were also carried out using pinoxaden in conjunction with adjuvants 1-12. The adjuvants were added to the spray solution at a rate of 0.2% v/v unless otherwise stated. All spray solutions also contained 10% w/w of iso-Propanol. The weed species and their BBCH growth stage at spraying were Avena fatua (AVEFA; growth stage 12), Lolium perenne (LOLPE; growth stage 13), Alopecurus myosuroides (ALOMY; growth stage 13), and Setaria viridis (SETVI; growth stage 13-14). Each spray test was replicated three times. The test plants were then grown in a glasshouse under controlled conditions (at 20/16° C. day/night; 16 hours light; 65% humidity) and watered twice a day. The efficacy of the herbicide was assessed visually and expressed as a percentage of the leaf area killed. Samples were assessed at a time period of 21 days following application. The results shown in Table 4 below are mean averages over the two rates of pinoxaden, and the three replicates.
In the case of CCCCCCCCCOc1cc(OCCOCCOCCOCCOCCOCCOCCOCCOCCOCCOC)ncn1 [Adjuvant 5], the “Mean % Herbicidal Activity ALOMY” value is reported as 10%. For CCCCCCCCCCCCOc1cc(OCCOCCOCCOCCOCCOCCOCCOC)ncn1 [Adjuvant 6], the “Mean % Herbicidal Activity ALOMY” value was 23%.

The compounds below were run on Avena fatua (AVEFA) in the same assay as above. Conditions: pinoxaden EC, mean over 7.5 and 15 g/ha and 3 replicates; adjuvant 0.2% v/v (none in No Adjuvant rows); % leaf area killed, 21 days after application; Tests 1-4 separate runs.
Format: in vivo
Description: as §1, with “pinoxaden” for “fomesafen (as the sodium salt)”, “20/16°” for “24/18°”, “light;” for “light,”, “Pinoxaden” for “Fomesafen sodium salt”, “EC (emulsifiable” for “SL (soluble”
as §4
CCCCCCCCCOc1cc(OCCOCCOCCOCCOCCOCCOCCOCCOCCOCCOC)ncn1 [Adjuvant 5] was tested, and the “Mean % Herbicidal Activity AVEFA” value was 69%. In the case of CCCCCCCCCCCCOc1cc(OCCOCCOCCOCCOCCOCCOCCOC)ncn1 [Adjuvant 6], the “Mean % Herbicidal Activity AVEFA” value is reported as 82%.

What follows are compounds tested on Setaria viridis (SETVI) in the same assay as above. Conditions: pinoxaden EC, mean over 7.5 and 15 g/ha and 3 replicates; adjuvant 0.2% v/v (none in No Adjuvant rows); % leaf area killed, 21 days after application; Tests 1-4 separate runs.
Format: in vivo
Description: as §1, with “pinoxaden” for “fomesafen (as the sodium salt)”, “20/16°” for “24/18°”, “light;” for “light,”, “Pinoxaden” for “Fomesafen sodium salt”, “EC (emulsifiable” for “SL (soluble”
as §4
With CCCCCCCCCOc1cc(OCCOCCOCCOCCOCCOCCOCCOCCOCCOCCOC)ncn1 [Adjuvant 5] the “Mean % Herbicidal Activity SETVI” value was 63%. CCCCCCCCCCCCOc1cc(OCCOCCOCCOCCOCCOCCOCCOC)ncn1 [Adjuvant 6] was tested, and the “Mean % Herbicidal Activity SETVI” value was 87%.

These compounds were tested on Lolium perenne (LOLPE) in the same assay as above. Conditions: pinoxaden EC, mean over 7.5 and 15 g/ha and 3 replicates; adjuvant 0.2% v/v (none in No Adjuvant rows); % leaf area killed, 21 days after application; Tests 1-4 separate runs.
Format: in vivo
Description: as §1, with “pinoxaden” for “fomesafen (as the sodium salt)”, “20/16°” for “24/18°”, “light;” for “light,”, “Pinoxaden” for “Fomesafen sodium salt”, “EC (emulsifiable” for “SL (soluble”
as §4
In the case of CCCCCCCCCOc1cc(OCCOCCOCCOCCOCCOCCOCCOCCOCCOCCOC)ncn1 [Adjuvant 5], the “Mean % Herbicidal Activity LOLPE” value is reported as 21%. In the case of CCCCCCCCCCCCOc1cc(OCCOCCOCCOCCOCCOCCOCCOC)ncn1 [Adjuvant 6], the “Mean % Herbicidal Activity LOLPE” value is reported as 62%.

These compounds were tested on Setaria viridis (SETVI) (assay: Adjuvant efficacy with nicosulfuron, glasshouse spray test). Conditions: nicosulfuron WG, mean over 15 and 60 g/ha and 3 replicates; adjuvant 0.2% v/v (none in No Adjuvant rows); % leaf area killed, 21 days after application; Tests 1-4 separate runs.
Format: in vivo
Description: (§5) The efficacy of adjuvants 1-12 as adjuvants for the herbicide nicosulfuron were tested in a glasshouse against four weed species sown into standard soil in pots and cultivated under controlled conditions in a glasshouse (at 24/18° C. day/night; 16 hours light; 65% humidity). Nicosulfuron was added to the spray tank as a standard WG (water dispersible granule) formulation.
(§6) The spray tests were also carried out using nicosulfuron in conjunction with adjuvants 1-12. The adjuvant was added to the spray solution at a rate of 0.2% v/v. All spray solutions also contained 12.5% v/v of iso-Propanol. The weed species and their BBCH growth stage at spraying were Abutilon theophrasti (ABUTH; growth stage 13), Chenopodium album (CHEAL; growth stage 13-14), Digitaria sanguinalis (DIGSA; growth stage 11), and Setaria viridis (SETVI; growth stage 13). Each spray test was replicated three times. The test plants were then grown in a glasshouse under controlled conditions (at 24/18° C. day/night; 16 hours light; 65% humidity) and watered twice a day. The efficacy of the herbicide was assessed visually and expressed as a percentage of the leaf area killed. Samples were assessed at a time period of 21 days following application. The results shown in Table 1 below are mean averages over the two rates of nicosulfuron, and the three replicates.
For CCCCCCCCCOc1cc(OCCOCCOCCOCCOCCOCCOCCOCCOCCOCCOC)ncn1 [Adjuvant 5], the “Mean % Herbicidal Activity SETVI” value was 91%. With CCCCCCCCCCCCOc1cc(OCCOCCOCCOCCOCCOCCOCCOC)ncn1 [Adjuvant 6] the “Mean % Herbicidal Activity SETVI” value was 91%.

The compounds below were run on Digitaria sanguinalis (DIGSA) in the same assay as above. Conditions: nicosulfuron WG, mean over 15 and 60 g/ha and 3 replicates; adjuvant 0.2% v/v (none in No Adjuvant rows); % leaf area killed, 21 days after application; Tests 1-4 separate runs.
Format: in vivo
Description: as §5, §6
With CCCCCCCCCOc1cc(OCCOCCOCCOCCOCCOCCOCCOCCOCCOCCOC)ncn1 [Adjuvant 5] the “Mean % Herbicidal Activity DIGSA” value was 49%. With CCCCCCCCCCCCOc1cc(OCCOCCOCCOCCOCCOCCOCCOC)ncn1 [Adjuvant 6] the “Mean % Herbicidal Activity DIGSA” value was 74%.

The compounds below were run on Abutilon theophrasti (ABUTH) in the same assay as above. Conditions: nicosulfuron WG, mean over 15 and 60 g/ha and 3 replicates; adjuvant 0.2% v/v (none in No Adjuvant rows); % leaf area killed, 21 days after application; Tests 1-4 separate runs.
Format: in vivo
Description: as §5, §6
CCCCCCCCCOc1cc(OCCOCCOCCOCCOCCOCCOCCOCCOCCOCCOC)ncn1 [Adjuvant 5] was tested, and the “Mean % Herbicidal Activity ABUTH” value was 49%. With CCCCCCCCCCCCOc1cc(OCCOCCOCCOCCOCCOCCOCCOC)ncn1 [Adjuvant 6] the “Mean % Herbicidal Activity ABUTH” value was 38%.

These compounds were tested on Chenopodium album (CHEAL) in the same assay as above. Conditions: nicosulfuron WG, mean over 15 and 60 g/ha and 3 replicates; adjuvant 0.2% v/v (none in No Adjuvant rows); % leaf area killed, 21 days after application; Tests 1-4 separate runs.
Format: in vivo
Description: as §5, §6
CCCCCCCCCOc1cc(OCCOCCOCCOCCOCCOCCOCCOCCOCCOCCOC)ncn1 [Adjuvant 5] was tested, and the “Mean % Herbicidal Activity CHEAL” value was 63%. In the case of CCCCCCCCCCCCOc1cc(OCCOCCOCCOCCOCCOCCOCCOC)ncn1 [Adjuvant 6], the “Mean % Herbicidal Activity CHEAL” value is reported as 83%.

What follows are compounds tested on four weed species (ABUTH, CHEAL, IPOHE, SETVI) (assay: Adjuvant efficacy with fomesafen, glasshouse spray test, average over all species). Conditions: fomesafen sodium salt SL, mean over 100 and 200 g/ha, adjuvant 0.2% v/v (none in No Adjuvant rows), 21 days, average of ABUTH.
Format: in vivo
Description: as §1, §2, §3
With CCCCCCCCCOc1cc(OCCOCCOCCOCCOCCOCCOCCOCCOCCOCCOC)ncn1 [Adjuvant 5] the “Mean % Herbicidal Activity Average over all Species” value (“Mean % Herbicidal Activity Average” for short) was 57%. In the case of CCCCCCCCCCCCOc1cc(OCCOCCOCCOCCOCCOCCOCCOC)ncn1 [Adjuvant 6], the “Mean % Herbicidal Activity Average” value is reported as 50%.

Each compound was assayed on four weed species (ABUTH, CHEAL, DIGSA, SETVI) (assay: Adjuvant efficacy with nicosulfuron, glasshouse spray test, average over all species). Conditions: nicosulfuron WG, mean over 15 and 60 g/ha, adjuvant 0.2% v/v (none in No Adjuvant rows), 21 days, average of ABUTH.
Format: in vivo
Description: as §5, §6
CCCCCCCCCOc1cc(OCCOCCOCCOCCOCCOCCOCCOCCOCCOCCOC)ncn1 [Adjuvant 5] was tested, and the “Mean % Herbicidal Activity Average” value was 63%. CCCCCCCCCCCCOc1cc(OCCOCCOCCOCCOCCOCCOCCOC)ncn1 [Adjuvant 6] was tested, and the “Mean % Herbicidal Activity Average” value was 71%.
